Measurements from patent US11884627B2, “Compounds and compositions for treating conditions associated with LPA receptor activity” (Lhotse Bio, Inc., priority 2022, dated 2024).
Like-named read-outs stand apart in the source and are kept apart here.

Target: T1, human LPA1 (Homo sapiens, UniProt Q92633)
T1 construct: expressed in transfected cells; host or cells: CHO-K1
Assay: In vitro LPA1 calcium flux antagonist assay - Bioduro protocol
Format: cell-based
Settings: CHO-K1 cells overexpressing human LPA1 and G15a, LPA challenge at EC80
Procedure: In Vitro LPA1 Calcium Flux Antagonist Assay—Bioduro Protocol
CHO-K1 cells overexpressing human LPA1 and G15a were seeded at a total volume of 20 μL (15000 cells/well) into Matrigel pre-coated 384-well plates (corning −3764) and incubated at 37° C. After overnight incubation, the cells were serum starved for 4 h. Assays were performed in dye loading buffer containing 1× Fluo-8 AM (AAT Bioquest, 21080) and 2.5 mM probenecid (Thermo Fisher, 36400) in HBSS/20 mM Hepes. After cell starvation, the medium was replaced with 20 μL of dye loading buffer and incubated at 37° C., for 30 min. Then 5 μL of 5× compound titrated in dye loading buffer was added to the cells and incubated for 30 min followed by LPA challenge at EC80. Calcium mobilization was measured on a FLIPR Tetra (MSD). For LPA EC80 determination, starved cells were incubated with 20 μL of dye loading buffer for 1 h, then 5 μL of 5×LPA titrated in dye loading buffer was added to the cells. Calcium signals induced by LPA was monitors on a FLIPR.
Percentage inhibition is calculated using the following formula: % Inhibition=100%×(1−(mean RFU of test sample−mean RFU of DMSO)/(mean RFU of LPA control−mean RFU of DMSO)).
Table B3 and Table B4 show the biological activity of compounds in in vitro LPA1 Calcium flux antagonist assay—Bioduro protocol.

[1] = calcium mobilization on FLIPR Tetra, read-out: IC50
[2] = Table B3, read-out: Activity (IC50 class)

T1 sequence (Q92633 whole entry): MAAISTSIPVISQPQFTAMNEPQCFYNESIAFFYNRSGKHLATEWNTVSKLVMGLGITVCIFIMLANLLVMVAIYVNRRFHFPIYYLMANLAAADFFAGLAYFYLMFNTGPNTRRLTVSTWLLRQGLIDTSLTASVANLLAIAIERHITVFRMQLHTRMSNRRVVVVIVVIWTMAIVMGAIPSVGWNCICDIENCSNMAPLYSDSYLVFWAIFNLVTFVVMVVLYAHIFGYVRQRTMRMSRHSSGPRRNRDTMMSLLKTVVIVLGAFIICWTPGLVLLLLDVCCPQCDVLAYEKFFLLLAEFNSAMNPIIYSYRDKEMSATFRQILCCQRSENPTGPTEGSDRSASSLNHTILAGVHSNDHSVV

| SMILES | IC50 [1] [nM] | IC50 [2] [nM] |
| --- | --- | --- |
| COc1cc(OC)cc(-c2c(C)cc(NC3(C(=O)O)Cc4ccccc4C3)cc2COC2CCCC2)c1 [Compound 188] | 2730 | > 1000 |
| COc1c(C(C)=O)ccc(-c2ccc(NC3(C(=O)O)CCOCC3)cc2COC2CCCC2)c1C [Compound 189] | 52.5 | < 100 |
| COc1cc(-c2ccc(OC3(C(=O)O)CCOCC3)cc2COC2CCCC2)c(C)c(OC)c1C [Compound 191] | 34.3 | < 100 |
| CCc1c(-c2ccc(OC3(C(=O)O)CCOCC3)cc2COC2CCCC2)cc(OC)c(C)c1OC [Compound 194] | 79.8 | < 100 |
| COC(=O)N1CC(Nc2ccc(-c3cc(OC)c(C)c(OC)c3C)c(COC3CCCC3)c2)(C(=O)O)C1 [Compound 195] | 760 | > 1000 |
| COc1cc2c(c(-c3ccc(NC4(C(=O)O)CCOCC4)cc3COC3CCCC3)c1)CCO2 [Compound 198] | 232 | 100 to 1000 |
| COc1cc2c(c(-c3ccc(NC4(C(=O)O)CCOCC4)cc3COC3CCCC3)c1)OCO2 [Compound 199] | 3210 | > 1000 |
| COc1cc(OC)cc(-c2ccc(NC3(C(=O)O)CCOCC3)cc2CCN2CCCC2=O)c1 [Compound 202] | > 10000 | > 1000 |
| COc1cc(-c2ccc(NC3(C(=O)O)CCC(OC)CC3)cc2COC2CCCC2)cc(OC)c1C (stereo not shown) [Compound 205] | 1260 | > 1000 |
| COc1cc(-c2ccc(NC3(C(=O)O)CCC(O)CC3)cc2COC2CCCC2)cc(OC)c1C (stereo not shown) [Compound 206] | 476 | 100 to 1000 |
| COC(=O)NC1CCC(Nc2ccc(-c3cc(OC)c(C)c(OC)c3)c(COC3CCCC3)c2)(C(=O)O)CC1 (stereo not shown) [Compound 208] | 56.4 | < 100 |
| COC(=O)N1CCCC(Nc2cc(C)c(-c3cc(OC)cc(OC)c3)c(COC3CCCC3)c2)(C(=O)O)C1 (stereo not shown) [Compound 210] | > 10000 | > 1000 |
| COC(=O)N1CCCC(Nc2cc(C)c(-c3cc(OC)cc(OC)c3)c(COC3CCCC3)c2)(C(=O)O)C1 (stereo not shown) [Compound 211] | > 10000 | > 1000 |
| CCOC1CC(Nc2ccc(-c3cc(OC)c(C)c(OC)c3C)c(COC3CCCC3)c2)(C(=O)O)C1 (stereo not shown) [Compound 213] | 58.7 | < 100 |
| CCOC1CC(Nc2ccc(-c3cc(OC)c(C)c(OC)c3C)c(COC3CCCC3)c2)(C(=O)O)C1 (stereo not shown) [Compound 214] | 58.9 | < 100 |
| COc1cc(-c2ccc(NC3(C(=O)O)CCOCC3)cc2COC2CCCC2)cc(O)n1 [Compound 218] | > 10000 | > 1000 |
| COc1cc(-c2ccc(NC3(C(=O)O)CCOCC3)cc2COC2CCC3(CC3)C2)cc(OC)c1C (stereo not shown) [Compound 219] | 58 | < 100 |
| COc1cc(-c2ccc(NC3(C(=O)O)CCOCC3)cc2COC2CCCC2)c(OC)c(OC)c1C [Compound 220] | 81.6 | 100 to 1000 |
| COc1cc(OC)c(F)c(-c2ccc(OC3(C(=O)O)CCOCC3)cc2COC2CCCC2)c1 [Compound 222] | 167 | 100 to 1000 |
| COc1cc(-c2ccc(NC3(C(=O)O)C[C@@H](C)O[C@@H](C)C3)cc2COC2CCCC2)c(F)c(OC)c1C (stereo partly drawn) [Compound 225, (2R,6S)-4-((2-((cyclopentyloxy)methyl)-2′-fluoro-3′,5′-dimethoxy-4′-methyl-[1,1′-biphenyl]-4-yl)amino)-2,6-dimethyltetrahydro-2H-pyran-4-carboxylic acid] | 320 | 100 to 1000 |
| COc1cc(-c2ccc(OC3(C(=O)O)CCOCC3)cc2COC2CCCC2)c(Cl)c(OC)n1 [Compound 230] | 139 | 100 to 1000 |
| COc1cc(-c2ccc(OCC3(C(=O)O)CCOCC3)cc2COC2CCCC2)c(F)c(OC)c1C [Compound 232] | 756 | 100 to 1000 |
| COc1cc(-c2c(CC#N)cc(NC3(C(=O)O)CCOCC3)cc2COC2CCCC2)cc(OC)c1C [Compound 233] | 914 | 100 to 1000 |
| COc1cc(-c2ccc(C3(C(=O)O)CCOCC3)cc2COC2CCCC2)cc(OC)c1C [Compound 234] | 5190 | > 1000 |
| COc1cc(-c2ccc(C3(C(=O)O)CCOCC3)cc2COC2CCCC2)c(Cl)c(OC)c1C [Compound 235] | 198 | 100 to 1000 |
| COc1cc(-c2ccc(CC3(C(=O)O)CCOCC3)cc2COC2CCCC2)c(Cl)c(OC)c1C [Compound 236] | 4710 | > 1000 |
| COc1cc(-c2ccc(N(C)C3(C(=O)O)CCOCC3)cc2COC2CCCC2)c(F)c(OC)c1C [Compound 239] | 970 | 100 to 1000 |
| COc1cc(-c2cc(F)c(NC3(C(=O)O)CCOCC3)cc2COC2CCCC2)c(F)c(OC)c1C [Compound 243] | 82.9 | 100 to 1000 |

Now those with a lower IC50 [1], led by results:

| IC50 [1] [nM] | IC50 [2] [nM] | SMILES |
| --- | --- | --- |
| 33.2 | < 100 | COc1cc(-c2c(Cl)cc(NC3(C(=O)O)CCOCC3)cc2COC2CCCC2)cc(OC)c1C [Compound 184] |
| 31.9 | < 100 | COc1cc(-c2ccc(NC3(C(=O)O)CCOCC3)cc2COC2CCCC2)c2c(c1C)OCC2 [Compound 193, 4-((3-((cyclopentyloxy)methyl)-4-(6-methoxy-7-methyl-2,3-dihydrobenzofuran-4-yl)phenyl)amino)tetrahydro-2H-pyran-4-carboxylic acid] |
| 30.4 | < 100 | COc1cc(-c2ccc(NC3(C(=O)O)CCOCC3)cc2COC2CCCC2)c(Cl)c(OC)n1 [Compound 207, 4-((4-(3-chloro-2,6-dimethoxypyridin-4-yl)-3-((cyclopentyloxy)methyl)phenyl)amino)tetrahydro-2H-pyran-4-carboxylic acid] |
| 30.1 | < 100 | COc1cc(-c2ccc(NC3(C(=O)O)CC(OC)C3)cc2COC2CCCC2)c(C)c(OC)c1C (stereo not shown) [Compound 196] |
| 26 | < 100 | CCc1c(-c2ccc(NC3(C(=O)O)CCOCC3)cc2COC2CCCC2)cc(OC)c(C)c1OC [Compound 203] |
| 25 | < 100 | COc1cc(-c2ccc(NC3(C(=O)O)CCOCC3)c(F)c2COC2CCCC2)c(F)c(OC)c1C [Compound 227] |
| 24.3 | < 100 | CCOc1cc(OC)cc(-c2ccc(OC3(C(=O)O)CCOCC3)cc2COC2CCCC2)c1F [Compound 246] |
| 23.4 | < 100 | COc1cc(-c2ccc(NC3(C(=O)O)CCOCC3)cc2COC2CCCC2)c(F)c(C2CC2)c1 [Compound 240] |
| 23.2 | < 100 | CCOc1cccc(-c2ccc(NC3(C(=O)O)CCOCC3)cc2COC2CCCC2)c1F [Compound 245, 4-((2-((cyclopentyloxy)methyl)-3′-ethoxy-2′-fluoro-[1,1′-biphenyl]-4-yl)amino)tetrahydro-2H-pyran-4-carboxylic acid] |
| 22.2 | < 100 | COc1cc(OC)c(F)c(-c2ccc(NC3(C(=O)O)CCOCC3)cc2COC2CCCC2)c1 [Compound 226] |
| 15.5 | < 100 | COc1cc(-c2ccc(OC3(C(=O)O)CCOCC3)cc2COC2CCCC2)c(F)c(OC)c1C [Compound 209, 4-((2-((cyclopentyloxy)methyl)-2′-fluoro-3′,5′-dimethoxy-4′-methyl-[1,1′-biphenyl]-4-yl)oxy)tetrahydro-2H-pyran-4-carboxylic acid] |
| 15.1 | < 100 | COc1cc(-c2ccc(OC3(C(=O)O)CCOCC3)cc2COC2CCCC2)c(Cl)c(OC)c1C [Compound 192, 4-((2′-chloro-2-((cyclopentyloxy)methyl)-3′,5′-dimethoxy-4′-methyl-[1,1′-biphenyl]-4-yl)oxy)tetrahydro-2H-pyran-4-carboxylic acid] |
| 12.5 | < 100 | COc1cc(-c2ccc(NC3(C(=O)O)CC(OC)C3)cc2COC2CCCC2)c(C)c(OC)c1C (stereo not shown) [Compound 197] |
| 11.2 | < 100 | COc1cc(-c2ccc(NC3(C(=O)O)CCOCC3)cc2COC2(C)CCCC2)c(C)c(OC)c1C [Compound 212] |
| 10.8 | < 100 | COc1cc(-c2ccc(NC3(C(=O)O)CCOCC3)cc2COC2CCCC2)c(C(F)F)c(OC)c1C [Compound 215] |
| 9.7 | < 100 | COc1cc(-c2ccc(NC3(C(=O)O)CCOCC3)cc2COC2CC3CC3C2)cc(OC)c1C (stereo not shown) [Compound 182, 4-((2-((bicyclo[3.1.0]hexan-3-yloxy)methyl)-3′,5′-dimethoxy-4′-methyl-[1,1′-biphenyl]-4-yl)amino)tetrahydro-2H-pyran-4-carboxylic acid] |
| 5.28 | < 100 | CCOc1cccc(-c2ccc(NC3(C(=O)O)CCOCC3)cc2COC2CCCC2)c1C [Compound 229, 4-((2-((cyclopentyloxy)methyl)-3′-ethoxy-2′-methyl-[1,1′-biphenyl]-4-yl)amino)tetrahydro-2H-pyran-4-carboxylic acid] |
| 2.73 | < 100 | CCOc1cccc(-c2ccc(NC3(C(=O)O)CCOCC3)cc2COC2CCCC2)c1C(F)F [Compound 244] |
| 2.63 | < 100 | COc1cc(OC)c(F)c(-c2ccc(NC3(C(=O)O)CCOCC3)cc2CCC2CCCC2)c1 [Compound 228] |
